Key:
[1] = target: T1, sulfotransferase domain of human NDST-1 (Homo sapiens, UniProt P52848); assay: Dot-blot assay for NDST-1 (sulfation of de-N-sulfated heparin with 35S-PAPS); assay type: biochemical; conditions: FIG. 5A Lineweaver-Burk plot
T1 construct: A plasmid containing the sulfotransferase domain of human NDST-1 fused to glutathione S-transferase; glutathione S-transferase (cleaved yes); made in house
T1 sequence (P52848 599-882 limits assumed): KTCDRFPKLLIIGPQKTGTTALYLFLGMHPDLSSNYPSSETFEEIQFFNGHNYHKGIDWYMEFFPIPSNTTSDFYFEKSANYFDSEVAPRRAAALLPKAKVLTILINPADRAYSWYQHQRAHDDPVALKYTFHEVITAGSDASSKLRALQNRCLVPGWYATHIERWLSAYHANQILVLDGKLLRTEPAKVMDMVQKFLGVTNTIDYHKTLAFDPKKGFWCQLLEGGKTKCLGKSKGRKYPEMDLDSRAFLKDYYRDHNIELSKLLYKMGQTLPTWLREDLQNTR
Procedure: For the NDST-1 assay, de-N-sulfated heparin (0.02-0.1 mg) and 0.1 μg of enzyme were added to 50 mM HEPES-NaOH (pH 7.0), 0.15 M NaCl, 0.75 mg/mL protamine, 0.4% Triton X-100, 15% glycerol in a total volume of 25 μL in a 96-well plate. Reactions were initiated with 0.15 μM ^35S-labeled PAPS (“^35S-PAPS”)(0.1-0.5 μCi per reaction), incubated at 25° C. for 15 min, and terminated by the addition of 30 μL of MeOH. A 15-μL aliquot was removed from each well and diluted 100-fold, and 15-25 μL were then transferred to the wells of the dot-blot apparatus. A vacuum was applied, and the wells were washed and eluted as described below. Control reactions with heat-killed (100° C., 5 min) enzyme were included to monitor background binding of ^35S-PAPS and ^35S-SO4^2− to the membrane after washing.
(§1) Hybond-N+ membranes were pre-wetted with H2O and Hybond-P membranes were pre-wetted with MeOH before assembling the dot-blot apparatus. The quenched and diluted reactions were added to the wells, and a vacuum was applied to load products onto the membrane. To elute ^35S-PAPS while retaining ^35S-labeled heparin or GlcNAc-PAA on the membrane, the wells were washed twice with 40 μL of PAPS elution buffer (EB) ((NH4)2SO4 pH 3.0), while maintaining a gentle vacuum. […] The amount of ^35S-labeled product associated with the membrane was then quantified by phosphorimaging.

GST-3 = target: T2, GST-3 (Homo sapiens, UniProt Q8NCG5); assay: Dot-blot assay for GST-3 (sulfation of β-GlcNAc-PAA with 35S-PAPS); assay type: biochemical; conditions: FIG. 5B Lineweaver-Burk plot
T2 sequence (Q8NCG5 1-386): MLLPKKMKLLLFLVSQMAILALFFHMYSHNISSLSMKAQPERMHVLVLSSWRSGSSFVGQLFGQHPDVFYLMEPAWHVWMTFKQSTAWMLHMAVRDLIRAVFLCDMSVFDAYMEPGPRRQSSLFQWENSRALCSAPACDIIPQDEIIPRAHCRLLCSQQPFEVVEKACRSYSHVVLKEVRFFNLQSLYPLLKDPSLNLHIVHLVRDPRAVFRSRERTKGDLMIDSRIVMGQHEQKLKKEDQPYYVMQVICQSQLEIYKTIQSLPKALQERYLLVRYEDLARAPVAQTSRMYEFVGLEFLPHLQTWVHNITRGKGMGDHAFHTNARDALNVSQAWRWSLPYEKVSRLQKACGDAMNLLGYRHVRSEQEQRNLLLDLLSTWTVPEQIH
Procedure: A typical assay included an appropriate volume of enzyme solution, 0.6-1.0 μg of β-GlcNAc-PAA, 0.1% Triton X-100, 10% glycerol, 4 mM Mg(OAc)2, 10 mM NaF, 1 mM ATP, in 30 mM HEPES-NaOH (pH 6.0), diluted to a total volume of 25 μL in a 96-well plate. Reactions were initiated with 2.0 μM ^35S-PAPS (0.1-0.5 μCi per reaction), incubated at 25° C. for 2 h, and terminated with 30 μL of MeOH. A 15-μL aliquot was removed from each well and diluted 100-fold, and 15-25 μL of the solution were transferred to the wells of the dot-blot apparatus. A vacuum was applied, and the wells were washed and eluted as described below. Control reactions with heat-killed enzyme were included to monitor background binding of ^35S-PAPS and ^35S-SO4^2− to the membrane after washing.
as §1

## Nc1ncnc2c1ncn2[C@@H]1O[C@H](COP(=O)(O)O)[C@@H](OP(=O)(O)O)[C@H]1O [3′,5′-ADP]
[1]
  mode of enzyme inhibition (double reciprocal plots of signal versus PAPS concentration): competitive inhibitor
GST-3
  mode of enzyme inhibition (double reciprocal plots of signal versus PAPS concentration): competitive inhibitor
